Measurements as given in patent US20240382498A1, “NOVEL INHIBITOR OF HYPE-MEDIATED AMPYLATION” (Purdue Research Foundation, priority 2023, published 2024).
Read-outs that look alike come from different tables or passages of the source.

How the values were obtained:
E234G HYPE = molecular target: T1, E234G HYPE (Homo sapiens, UniProt Q9BVA6, E234G); experiment: Fluorescence polarization (FP) microplate autoAMPylation assay with Fl-ATP, E234G HYPE inhibitor HTS, cherrypick validation and concentration-response; assay type: biochemical; conditions: for inhibition at 10 µM: 10 μM compound
T1 construct: Δ102 (aa 103-458) HYPE constructs (WT, E234G, and E234G/H363A); His6-SUMO (cleaved yes); made in house; host or cells: E. coli BL21-DE3-RILP
T1 sequence (Q9BVA6 103-458 E234G): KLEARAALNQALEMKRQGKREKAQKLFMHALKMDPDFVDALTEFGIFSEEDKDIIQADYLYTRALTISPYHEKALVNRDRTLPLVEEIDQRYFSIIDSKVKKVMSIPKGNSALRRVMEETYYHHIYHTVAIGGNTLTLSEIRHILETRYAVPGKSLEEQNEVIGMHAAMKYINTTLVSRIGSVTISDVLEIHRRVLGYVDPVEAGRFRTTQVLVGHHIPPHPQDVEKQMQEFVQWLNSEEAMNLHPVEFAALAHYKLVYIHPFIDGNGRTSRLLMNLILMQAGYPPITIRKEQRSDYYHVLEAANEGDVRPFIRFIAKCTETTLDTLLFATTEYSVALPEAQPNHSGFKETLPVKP
Experimental: Buffer optimization experiments were performed by incubating 0.4 μM of Δ102 HYPE enzyme with 25 nM Fl-ATP (final concentrations) in HTS buffer (50 mM HEPES (pH 7.5), 1 mM MgCl2, 0.1% Triton X-100, 1% DMSO) in the dark at room temperature for 10 min in 384-well black bottom, black wall microplates (20 μL reaction volume). Where specified, 1 mM MgCl2 was replaced with an equivalent concentration of MnCl2, or 0.1% Triton X-100 was replaced with 0.05% or 0.01% Trion X-100. Microplates were snap centrifuged at 1000 g for 10 sec. Microplates were loaded onto a BioTek BioStack NEO2 plate-reader and assessed for fluorescence polarization with 485/530 nm filters and a 55/50 gain adjustment.
A Multidrop 384 reagent dispenser (ThermoFisher) was used to add 0.4 μM HYPE, then 25 nM Fl-ATP (final concentrations) to 384-well black/black microplates (20 μL reaction volume). Both enzyme and nucleotide were dissolved in HTS Buffer. AMPylation Reactions were incubated for 10 min at room temperature in the dark. Microplates were snap centrifuged at 1000 g for 10 sec, then transferred to BioTek BioStack NEO2 plate-reader. Reactions were assessed for fluorescence polarization with 485/530 nm filters and a 55/50 gain adjustment. Z′, S/B, and CV values were determined by fitting the data to Eq. 1, 2, and 3, respectively,
An Echo Liquid Handler (Labcyte) was used to transfer 200 nL of DMSO-dissolved compounds via acoustic-coupled ejection from 10 mM source plates into 384-well black, flat-bottom, black-walled microplates, for a final compound concentration of 10 μM. Compounds were sourced from the following libraries: DIVERset (Chembridge), CNS-Set (Chembridge). The compounds went into columns 3-22 of each plate, while columns 1, 2, 23, and 24 were reserved for equivalent volume of 100% DMSO controls.
A Multidrop 384 reagent dispenser was used to pipette 0.4 μM of WT HYPE (final concentration) dissolved in HTS Buffer into columns 1-22 of the activator plates, and columns 1 and 2 of the inhibitor plates as positive controls. 0.4 μM of E234G HYPE was similarly added to columns 3-24 of the inhibitor plates, and columns 23 and 24 of the […]. Enzymes were then incubated with either compounds or DMSO for 10 min at room temperature.
A Multidrop 384 reagent dispenser was used to pipette 25 nM of Fl-ATP (final concentration) into all wells of each plate, giving a final reaction volume of 20 μL. Plates were then incubated for 10 min at room temperature in the dark, followed by a snap centrifugation at 1000 g for 10 sec. Microplates were loaded onto BioTek BioStack stacker and read in succession for fluorescence polarization with 485/530 nm filters and a 55/50 gain adjustment. Fluorescence polarization values were converted to fractional activation (FA) or fractional inhibition FI) values according to Eq. (3) or (4), respectively,
[formula] [formula] • where μp and μn are the means of the positive (E234G HYPE) and negative (WT HYPE) controls, respectively; and x is the measured value of fluorescence polarization.
Microplate “cherrypicking” validations were performed as described above.
A Multidrop 384 reagent dispenser was used to pipette 0.4 μM of WT or E234G HYPE (final concentrations) dissolved in HTS Buffer into designated microplate wells. 10 μM of DMSO-dissolved compounds (final concentrations) or equivalent volume of 100% DMSO were manually pipetted into their specified wells. Enzymes were incubated with compounds or DMSO for 10 min at room temperature. Reagent dispenser was then used to pipette 25 nM of Fl-ATP (final concentration) into each well, followed by a 10 min incubation at room temperature in the dark. Plates were snap centrifuged at 1000 g for 10 sec, then transferred to BioTek BioStack NEO2 plate-reader. Reactions were assessed for fluorescence polarization with 485/530 nm filters and a 55/50 gain adjustment. EC50 and IC50 values were determined by fitting polarization values to Eq. (5) and (6), respectively, […]

HEK 293 cells = experiment: MTT cell viability assay, HEK 293; assay type: cell-based, human; conditions: HEK 293, 10 μM, 48 hr
Experimental: The cell lines were procured from ATCC (American Type Culture Collection) and cultured in DMEM (Dulbecco's Modified Eagle Medium) supplemented with 10% FBS (fetal bovine serum) without antibiotics. Cells were grown and maintained in a humidified incubator at 37° C. with 5% CO2. For the MTT assay, cells were trypsinized and harvested at ˜80-90% confluency and seeded in 96 well plates at a density of 1×10^4 cells per well. The seeded cells were incubated overnight and treated with 1 μM, 3 μM, 5 μM, 7 μM, 10 μM, 20 μM, 30 μM or 50 μM (final concentration) of DMSO-dissolved compound for 48 hr. To rule out vehicle induced toxicity, only 0.5% of final DMSO concentration was added to the cells. Post-incubation, the compound treatment was removed and replaced with 0.5 mg/ml (final concentration) of freshly prepared MTT solution. After incubating for 3.5 hr at 37° C., 5% CO2 humidified incubator, MTT was carefully removed without aspirating the formazan crystals and replaced with equivalent volume of DMSO to dissolve the formazan crystals. The plates were then read using a multi-plate reader at 570 nm. The absorbance was recorded and % viability was calculated according to the following equation:
[formula] • where, Abt is the absorbance of compound treated cells and Abc is the absorbance of control cells.

AMPylation at in vitro saturation point of inhibition (E234G HYPE; 50 μM): zero percent AMPylation
IC50 (concentration-response of E234G HYPE inhibition) (E234G HYPE; FP microplate, inhibitors 0 to 200 μM): low micromolar
inhibition at 10 µM (E234G HYPE; cherrypick validation, same FP assay, read-out: % Inh. Cherry-pick): 29.7%
inhibition at 10 µM (E234G HYPE; initial HTS, normalized to WT and E234G HYPE DMSO controls, read-out: % Inh. HTS): 24.5%
Mean % Inh. (E234G HYPE; mean of HTS and cherrypick): 27.1%
SMILES: c1cn(-c2ccc(-c3nnc(-c4ccoc4)o3)cn2)cn1 [Compound I2.10]
cell viability (HEK 293 cells): ~80%
